This passage reports TGI and GI50 results from PubChem BioAssay (NCI).

Each structure is given as a SMILES string. Where “and” joins values, the source holds several entries; their conditions need not be identical. Equal values may be shown once.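 48-hour exposure; five concentrations; linearly interpolated endpoints. GI50: concentration for 50% inhibition of growth. Definition used: TGI = concentration required for complete inhibition of growth.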

Among the test systems are HCT-116 colon; SF-295 CNS; SF-539 CNS; SN12C renal; UACC-62 melanoma; SK-MEL-2 melanoma; SNB-19 CNS; RPMI-8226 leukemia; M14 melanoma; ACHN renal; BT-549 breast.
Holding throughout (experiment): DTP human tumour cell line panel, 48 h

One may read the TGI as the concentration giving total growth inhibition. The low end stands for greater sensitivity of the cells, the high end for lower sensitivity of the cells. For orientation: GI50 means the concentration giving 50% growth inhibition. Turning to `COC(=O)CCNc1c2ccccc2nc2cccc([N+](=O)[O-])c12`, the TGI is 1.11 µM with HCT-116 colon; 0.0115 µM and 0.0395 µM in the assay on SF-539 CNS; 0.0168 µM with SN12C renal; 0.00428 µM and 0.0364 µM with UACC-62 melanoma; 0.00284 µM in the assay with SK-MEL-2 melanoma; 0.217 µM and 0.0495 µM in the assay with SNB-19 CNS. For the same compound, the TGI in the assay on RPMI-8226 leukemia stood at 0.0236 µM. Besides, the GI50 is 2.61 nM with SF-295 CNS; 2.38 nM and 13.1 nM in the assay with SF-539 CNS; 1.36 nM in the assay with UACC-62 melanoma; 1.04 nM with SK-MEL-2 melanoma; 4.16 nM with SNB-19 CNS.
Take `C=CCOC(=O)N1c2ccc(O)cc2[C@@]23O[C@@]24[C@@H]1C#C/C=C\C#C[C@]3(O)C(OC)(OC)C[C@@H]4C`: the TGI is more than 100 µM in the assay on HCT-116 colon; more than 100 µM in the assay with SF-295 CNS; 79.9 µM in the assay on M14 melanoma; 40.6 µM with SF-539 CNS; 72.3 µM in the assay with ACHN renal; 61.6 µM with SN12C renal. Further, the TGI with UACC-62 melanoma was more than 100 µM; in the assay with SK-MEL-2 melanoma, 58.3 µM; with SNB-19 CNS, more than 100 µM; in the assay with RPMI-8226 leukemia it was 91.5 µM.
For the compound `COC(=O)[C@]1(c2ccc(N(C)C)cc2OC)C[C@@H]2CCCN(CCc3c1[nH]c1ccccc31)C2`, the TGI with HCT-116 colon was 55.5 µM; with SF-295 CNS, more than 60.7 µM; in the assay with SF-539 CNS it was 36.8 µM; in the assay on SN12C renal it was 41 µM; in the assay with UACC-62 melanoma it was 32.4 µM; with SK-MEL-2 melanoma, 36.2 µM. For the same compound, the TGI with SNB-19 CNS is more than 100 µM; with RPMI-8226 leukemia it was 63.2 µM.
Turning to `CNC(=O)SCC(NC(=O)CCC(N)C(=O)O)C(=O)NCC(=O)O` (stereo unspecified), the TGI with HCT-116 colon, in the assay on SF-295 CNS, in the assay on SF-539 CNS, with SN12C renal, in the assay on UACC-62 melanoma and with SK-MEL-2 melanoma was more than 100 µM throughout. The TGI in the assay on SNB-19 CNS and in the assay with RPMI-8226 leukemia was more than 100 µM in each case.
As to `O=[N+]([O-])/C=C(\CS(=O)(=O)c1ccccc1)c1ccc2c(c1)OCO2`, the TGI with HCT-116 colon is more than 100 µM; with SF-295 CNS, more than 100 µM; with M14 melanoma it was 71.4 µM; in the assay on SF-539 CNS, more than 100 µM; in the assay with ACHN renal, more than 100 µM; with SN12C renal it was more than 100 µM. The TGI with UACC-62 melanoma and with RPMI-8226 leukemia was more than 100 µM in each case.
As for `O=C(N/N=C\c1cccc2ccccc12)Nc1cccc2ccccc12`, the TGI in the assay on HCT-116 colon was 72 µM; in the assay on M14 melanoma it was more than 100 µM; in the assay on BT-549 breast it was more than 100 µM; in the assay on SF-539 CNS, 42.1 µM; with ACHN renal, more than 100 µM; in the assay on SN12C renal, more than 100 µM. Further, the figures for the TGI in the assay on SK-MEL-2 melanoma and with SNB-19 CNS were more than 100 µM and 48.9 µM, respectively.
On to `C=CC(C)C1(CCCOCc2ccccc2)C(=S)N2CCC3(CC24CCCC14)OCCO3` (stereo unspecified), for which the TGI in the assay with SF-295 CNS, with ACHN renal, in the assay with SN12C renal, in the assay with UACC-62 melanoma, with SK-MEL-2 melanoma and in the assay on SNB-19 CNS was more than 100 µM in each case. Further, in the assay with RPMI-8226 leukemia, the TGI came out at 10.4 µM.
With `O[C@@H]1CCC[C@@H]2NC[C@@H](c3ccc4c(c3)OCO4)[C@H]12`, the TGI with SF-295 CNS, in the assay on M14 melanoma, in the assay on SF-539 CNS, in the assay with ACHN renal, in the assay with UACC-62 melanoma and in the assay on SK-MEL-2 melanoma was more than 100 µM throughout. Moreover, the TGI in the assay on SNB-19 CNS and with RPMI-8226 leukemia was more than 100 µM throughout.
For `COC(=O)C1CCC(=O)N1C(c1cc(OC)c(OC)c(OC)c1)c1cccc2ccccc12` (stereo unspecified), the TGI in the assay with HCT-116 colon, with SF-295 CNS, in the assay with M14 melanoma, in the assay with SF-539 CNS, in the assay with ACHN renal and in the assay on SN12C renal was more than 100 µM in each case. For the same compound, the TGI in the assay on UACC-62 melanoma, in the assay on SK-MEL-2 melanoma, in the assay with SNB-19 CNS and in the assay on RPMI-8226 leukemia was more than 100 µM in each case.
`NCCCNOCCCN`: the TGI in the assay with HCT-116 colon, in the assay with SF-295 CNS, in the assay on M14 melanoma, in the assay on SF-539 CNS, with ACHN renal and in the assay on SN12C renal was more than 100 µM throughout. The TGI with UACC-62 melanoma, in the assay on SK-MEL-2 melanoma, with SNB-19 CNS and with RPMI-8226 leukemia was more than 100 µM throughout.
Regarding `CCSc1nc(=S)n(-c2ccccc2)c(C)c1C(C)=O`, the concentration for total growth inhibition (TGI) in the assay on HCT-116 colon, in the assay with SF-295 CNS, in the assay on M14 melanoma, with SF-539 CNS, in the assay with ACHN renal and with SN12C renal was more than 100 µM in each case. In addition, the TGI in the assay on UACC-62 melanoma, with SK-MEL-2 melanoma, in the assay on SNB-19 CNS and with RPMI-8226 leukemia was more than 100 µM throughout.
On to `COC(=O)c1c2c(cc3c1CC1(Cc4cc5c(c(C(C)=O)c4C1)CCCC5)C3)CCCC2` (stereo unspecified), for which the TGI in the assay on HCT-116 colon, in the assay on SF-295 CNS, in the assay on M14 melanoma, with SF-539 CNS, in the assay with ACHN renal and in the assay on SN12C renal was more than 100 µM in each case. In addition, the total growth inhibition concentration (TGI) in the assay with UACC-62 melanoma was more than 100 µM; in the assay on SK-MEL-2 melanoma, 44.5 µM; in the assay on RPMI-8226 leukemia, 87.5 µM.
Take `CCOc1ccc(C(C)c2cc3c(cc2OC)OCO3)cc1` (stereo unspecified): the TGI in the assay with HCT-116 colon was 4.82 µM; in the assay on M14 melanoma, 45 µM; in the assay with SF-539 CNS, 0.631 µM; in the assay on ACHN renal, more than 100 µM; in the assay on SN12C renal, 40.7 µM; with UACC-62 melanoma, more than 100 µM. The values for the TGI in the assay on SNB-19 CNS and with RPMI-8226 leukemia were more than 100 µM and 22.2 µM, respectively.
